Assays:
SHP2cat = biological target: T1, SHP2cat (Homo sapiens, UniProt Q06124); assay: Protein thermal shift (PTS) assay; assay type: binding; conditions: dose response
T1 construct: the SHP2 catalytic domain (SHP2cat; residues 248–527); made in house
T1 sequence (Q06124 248-527): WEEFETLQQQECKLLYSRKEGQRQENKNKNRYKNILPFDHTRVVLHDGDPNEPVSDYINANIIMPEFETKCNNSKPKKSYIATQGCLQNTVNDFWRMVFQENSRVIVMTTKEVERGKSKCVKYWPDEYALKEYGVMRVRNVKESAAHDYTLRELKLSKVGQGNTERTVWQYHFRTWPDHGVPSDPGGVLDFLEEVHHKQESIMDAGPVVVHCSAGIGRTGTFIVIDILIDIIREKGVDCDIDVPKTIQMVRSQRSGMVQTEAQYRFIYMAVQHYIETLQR
Text: We confirmed specific and dose-dependent binding of inhibitors to SHP2 by PTS, which monitors the thermal stability of a target protein in vitro ([40]). […] In addition, we confirmed the inhibitory activity of several furanylbenzamide inhibitors, including the top two compounds SBI-2130 and SBI-4668, in SHP2cat inhibition assays using the alternative substrate 3-O-methylfluorescein phosphate (OMFP), which features a peak fluorescence emission that is red-shifted by ∼75 nm compared with DiFMUP. The Km value of OMFP for SHP2cat was determined to be 50 μM. An OMFP fluorescence intensity–based assay was used to perform inhibitor dose–response experiments and determine IC50 values.
Differential scanning fluorimetry (also known as protein thermal shift) measurements of SHP2cat were performed using optimized methods and conditions in accordance with those previously described ([36], [41], [49]). SBI-4668 was spotted at different concentrations into MicroAmp 384-well real-time PCR plates (catalog no.: 4483285; Applied Biosystems) using an Echo 555 Liquid Handler. […] Plates were analyzed using a ViiA 7 Real-Time PCR instrument (Applied Biosystems) and a 12 min temperature gradient with a temperature increase of 0.075 °C/s. The melting temperature and thermal profiles were determined as described previously using Protein Thermal Shift Software, version 1.3 (Applied Biosystems) ([36], [49]).

MV4-11 AML cells = assay: Cell viability (CellTiter-Glo), MV4-11; assay type: cell-based; conditions: Homo sapiens, MV4-11, 72 h; 3 days in culture
Method: (§1) Inhibition of SHP2 has been reported to inhibit the growth of cancer cells including Kasumi-1 acute myeloid leukemia (AML) and KYSE-520 esophageal cancer cells ([30]). […] Thus, we treated two TNBC cell lines, BT-549 and MDA-MB-468, with SBI-4668 or the SHP2 allosteric inhibitor SHP099 at various concentrations and determined cell viability after 72 h, compared with the vehicle control (Fig. 4C). […] Next, we performed an 11-day colony formation assay with TNBC cells treated with SBI-4668 or SHP099 at 5, 10, or 20 μM (Fig. 4D).
Viability of AML and esophageal carcinoma cells was assessed using the ATP-depletion assay CellTiter-Glo (Promega). Cells were harvested at 1 × 10^6/ml to 2 × 10^6 cells/ml with cell numbers determined by trypan blue using the Countess Cell counter (Thermo Scientific) and resuspended in culture media. About 3000 cells (in 20 μl) were seeded in a 384-well format white and clear-bottom microplate (catalog no.: 781098; Greiner) spotted with test compound or vehicle control (DMSO) using an Echo 555 Liquid Handler. Cells were incubated for 3 days, before 10 μl of CellTiter-Glo reagent mix was added to each well and incubated for 10 min at RT. Luminescence was read on a Tecan Spark Multimode Microplate Reader, and data were analyzed using GraphPad Prism software.

BT-549 TNBC cells = assay: 11-day colony formation assay, BT-549; assay type: cell-based; conditions: 5, 10 or 20 μM, 11 days
Method: as §1
(§2) MDA-MB-468 and […] triple-negative breast cancer cells were maintained in Dulbecco's modified Eagle's medium + 10% FBS supplemented with 1× penicillin–streptomycin/L-glutamine (Omega Scientific). About 1500 cells (in 300 μl) were seeded per well of a standard 24-well tissue culture plate (Falcon) and allowed to adhere for 24 h, before the addition of compound(s) as described. After a further 96 h, media were replaced with fresh media containing the same test compounds and concentrations. After 11 days, media were removed, and cells stained with 0.5% crystal violet (in 20% methanol; Sigma) for 20 min with agitation at 80 rpm. Stain was removed, and plates with stained cells were washed by being submerged in excess deionized water and allowed to air dry overnight before imaging.

MDA-MB-468 TNBC cells = assay: 11-day colony formation assay, MDA-MB-468; assay type: cell-based; conditions: 5, 10 or 20 μM, 11 days
Method: as §1, §2

[1] = tested on: mutant SHP2 (E76K) in live cells; set-up: method as in PMID 31953320, PMID 32744526; conditions: cellular thermal shift assay; cited from earlier work

O=C(Nc1ccccc1)c1cc(-c2ccc(/C=C3\Sc4ccccc4C3=O)o2)ccc1O [SBI-4668, (Z)-2-Hydroxy-5-(5-((3-oxobenzo[b]thiophen-2(3H)-ylidene)methyl)furan-2-yl)-N-phenylbenzamide]
change of SHP2cat melting temperature (Tm) vs DMSO (SHP2cat): dose-dependently increased the melting temperature
IC50 (MV4-11 AML cells): 8.2 µM
colony formation, BT-549 (BT-549 TNBC cells): undetectable
colony formation, MDA-MB-468 (MDA-MB-468 TNBC cells): undetectable
cellular target engagement with mutant SHP2 [1]: direct target engagement

Reference: publication PMC8760490, “Discovery of novel furanylbenzamide inhibitors that target oncogenic tyrosine phosphatase SHP2 in leukemia cells” (The Journal of Biological Chemistry, 2021)
